# Test results: patent US10131670B2, “Bicyclic heteroaryl derivatives as CFTR potentiators” (CYSTIC FIBROSIS FOUNDATION THERAPEUTICS, INC., priority 2016, dated 2018)
# Legend:
# CFTR = CFTR (Homo sapiens, UniProt P13569); test: Ussing Chamber Electrophysiology Assay of CFTR Potentiation in CF Bronchial Epithelial Cells; format: cell-based; conditions: primary CF hBE cells, short-circuit current, scaled to DMSO (0%) and positive control potentiator (100%)
# Text: Ussing Chamber Electrophysiology Assay of CFTR Potentiation in CF Bronchial Epithelial Cells
# Primary cystic fibrosis human bronchial epithelial (CF hBE) cells were expanded and cultured according to published methods (Neuberger et al., Ch. 4 of Cystic Fibrosis, Methods in Molecular Biology vol. 741, pp. 39-54 (2011)). Well-differentiated cells (>30 days at air/liquid interface) on Snapwell filters (Corning Costar, cat. no. 3801) were mounted in Ussing chambers (Physiologic Instruments, Inc., San Diego, Calif.). F508del/F508del cultures were assayed at 27° C. and G551D/F508del cells were assayed at 35° C. HEPES buffered physiological saline (composition (in mM): 137 NaCl, 4 KCl, 1 MgCl2, 1.8 CaCl2, 10 HEPES Na) was used in both apical and basolateral chambers. Chambers were bubbled with air to promote mixing and the voltage was clamped to zero. Amiloride (30 uM), forskolin (10 uM), test compound (4 increasing concentrations), and CFTRinh-172 (20 uM) were added sequentially with 20-25 minutes between additions. Short-circuit currents were acquired and analyzed using LabScribe2. Test compound responses were scaled relative to responses for DMSO (0%) and the maximal response of a positive control potentiator (100%).
# F508del V470 CFTR = F508del V470 CFTR (Homo sapiens, UniProt P13569, DEL508-508); test: FRT Ion Flux Assay of F508del CFTR Potentiation; format: cell-based; conditions: FRT cells expressing F508del V470 CFTR and halide-sensitive YFP, forskolin 20 uM, 30 min
# F508del V470 CFTR, sequence (P13569 with tags, fused parts or gaps DEL508-508): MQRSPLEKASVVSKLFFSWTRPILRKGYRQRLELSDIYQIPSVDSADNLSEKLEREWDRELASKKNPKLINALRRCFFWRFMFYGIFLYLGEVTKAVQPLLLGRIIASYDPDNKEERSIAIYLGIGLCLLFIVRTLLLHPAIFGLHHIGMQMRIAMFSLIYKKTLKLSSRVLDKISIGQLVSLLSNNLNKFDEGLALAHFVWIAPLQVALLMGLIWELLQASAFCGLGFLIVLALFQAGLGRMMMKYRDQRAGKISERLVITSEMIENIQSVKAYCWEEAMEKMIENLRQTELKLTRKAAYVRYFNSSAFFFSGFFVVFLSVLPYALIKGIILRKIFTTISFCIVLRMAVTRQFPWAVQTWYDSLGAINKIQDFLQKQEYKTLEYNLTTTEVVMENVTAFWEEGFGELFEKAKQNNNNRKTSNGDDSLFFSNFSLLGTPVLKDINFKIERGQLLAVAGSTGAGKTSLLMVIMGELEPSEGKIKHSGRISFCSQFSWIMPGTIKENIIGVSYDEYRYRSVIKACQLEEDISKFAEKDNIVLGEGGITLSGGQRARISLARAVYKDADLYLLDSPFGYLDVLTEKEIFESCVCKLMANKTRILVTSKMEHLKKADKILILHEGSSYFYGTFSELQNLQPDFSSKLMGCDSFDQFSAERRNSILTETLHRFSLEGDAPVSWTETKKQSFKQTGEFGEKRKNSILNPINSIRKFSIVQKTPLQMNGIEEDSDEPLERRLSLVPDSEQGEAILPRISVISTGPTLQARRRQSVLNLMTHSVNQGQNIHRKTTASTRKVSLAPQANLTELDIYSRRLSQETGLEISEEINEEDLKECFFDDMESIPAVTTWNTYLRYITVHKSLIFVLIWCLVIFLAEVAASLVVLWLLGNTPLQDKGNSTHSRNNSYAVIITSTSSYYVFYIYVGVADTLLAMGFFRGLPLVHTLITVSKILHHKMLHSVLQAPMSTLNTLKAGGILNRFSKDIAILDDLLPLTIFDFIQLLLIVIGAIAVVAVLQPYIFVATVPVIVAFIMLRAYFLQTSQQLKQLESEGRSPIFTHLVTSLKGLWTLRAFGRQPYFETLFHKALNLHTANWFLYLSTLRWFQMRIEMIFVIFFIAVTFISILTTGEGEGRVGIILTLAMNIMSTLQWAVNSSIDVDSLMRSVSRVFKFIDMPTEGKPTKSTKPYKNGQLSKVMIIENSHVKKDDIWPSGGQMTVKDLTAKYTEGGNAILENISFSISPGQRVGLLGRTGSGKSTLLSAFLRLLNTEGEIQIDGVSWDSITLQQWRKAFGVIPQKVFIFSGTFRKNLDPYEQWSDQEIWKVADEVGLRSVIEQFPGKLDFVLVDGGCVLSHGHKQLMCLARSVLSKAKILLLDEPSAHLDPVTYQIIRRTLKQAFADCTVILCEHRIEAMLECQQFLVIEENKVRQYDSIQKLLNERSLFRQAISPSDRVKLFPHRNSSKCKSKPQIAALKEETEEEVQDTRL
# Protocol: FRT Ion Flux Assay of F508del CFTR Potentiation
# Fischer rat thyroid (FRT) cell lines stably expressing recombinant F508del V470 CFTR and halide-sensitive yellow fluorescent protein (Pedemonte et al., J. Clin. Invest. 115(9) 2564-71 (2005)) were seeded at 25,000 cells/well in 50 uL/well of culture medium into black-walled, clear bottom tissue-culture-treated 384-well plates (Corning, cat. no. 3712). After one day, the cells were pre-incubated at 27° C./5% CO2 for 16-24 hours. The cells were then washed with dPBS and treated with forskolin (20 uM) and test compound for 30 min by addition of 20 uL of compound dilution buffer (dPBS containing forskolin and test compound). Plates were loaded into FLIPR384 fluorescence imaging plate reader (Molecular Devices). After an initial fluorescence reading, iodide buffer (25 uL) (composition (in mM): 137 NaI, 1.5 K2PO4, 8.1 NaH2PO4, 2.7 KCl, 0.5 MgCl2, 1 CaCl2) was added and a second fluorescence reading was made after approximately 21 seconds. Data treatment involved division of the second fluorescence reading by the initial fluorescence reading, then scaling of the resulting normalized endpoint fluorescence with respect to the responses for DMSO (0%) and a positive control potentiator (100%).
SMILES,EC50 (CFTR),EC50 (F508del V470 CFTR)
"CCC(c1cnn(-c2ccccc2F)c1)c1c(C#N)c(-c2cnc(C(F)(F)F)nc2)c2c(N)ncnn12 (single isomer, unassigned) [Example 14, 4-amino-7-{1-[1-(2-fluorophenyl)-1H-pyrazol-4-yl]propyl}-5-[2-(trifluoromethyl)pyrimidin-5-yl]pyrrolo[2,1-f][1,2,4]triazine-6-carbonitrile]",2 nM,6.59 nM
"CCC(c1cnn(-c2ccccc2F)c1)c1c(C#N)c(-c2cnc(C(F)(F)F)nc2)c2c(N)ncnn12 (single isomer, unassigned) [Example 15, 4-amino-7-{1-[1-(2-fluorophenyl)-1H-pyrazol-4-yl]propyl}-5-[2-(trifluoromethyl)pyrimidin-5-yl]pyrrolo[2,1-f][1,2,4]triazine-6-carbonitrile]",0.2 nM,0.56 nM
"CCC(c1cnn(-c2ccc(F)cc2F)c1)c1c(C#N)c(-c2cnc(C(F)(F)F)nc2)c2c(N)ncnn12 (single isomer, unassigned) [Example 16, 4-amino-7-{1-[1-(2,4-difluorophenyl)-1H-pyrazol-4-yl]propyl}-5-[2-(trifluoromethyl)pyrimidin-5-yl]pyrrolo[2,1-f][1,2,4]thazine-6-carbonitrile]",0.42 nM,0.56 nM
"CCC(c1cnn(-c2ccc(F)cc2F)c1)c1c(C#N)c(-c2cnc(C(F)(F)F)nc2)c2c(N)ncnn12 (single isomer, unassigned) [Example 17, 4-amino-7-{1-[1-(2,4-difluorophenyl)-1H-pyrazol-4-yl]propyl}-5-[2-(trifluoromethyl)pyrimidin-5-yl]pyrrolo[2,1-f][1,2,4]triazine-6-carbonitrile]",3 nM,13.3 nM
"CC(c1cc(-c2ccccc2F)no1)c1c(C#N)c(-c2cnc(C(F)(F)F)nc2)c2c(N)ncnn12 (single isomer, unassigned) [Example 18, 4-amino-7-{1-[3-(2-fluorophenyl)-1,2-oxazol-5-yl]ethyl}-5-[2-(trifluoromethyl)pyrimidin-5-yl]pyrrolo[2,1-f][1,2,4]triazine-6-carbonitrile]",1.67 nM,3.1 nM
"CC(c1cc(-c2ccccc2F)no1)c1c(C#N)c(-c2cnc(C(F)(F)F)nc2)c2c(N)ncnn12 (single isomer, unassigned) [Example 19, 4-amino-7-{1-[3-(2-fluorophenyl)-1,2-oxazol-5-yl]ethyl}-5-[2-(trifluoromethyl)pyrimidin-5-yl]pyrrolo[2,1-f][1,2,4]triazine-6-carbonitrile]",5 nM,13.8 nM
"CC(c1cnn(-c2ccc(F)cc2F)c1)c1c(C#N)c(-c2cnc(C(F)(F)F)nc2)c2c(N)ncnn12 (single isomer, unassigned) [Example 20, 4-amino-7-{1-[1-(2,4-difluorophenyl)-1H-pyrazol-4-yl]ethyl}-5-[2-(trifluoromethyl)pyrimidin-5-yl]pyrrolo[2,1-f][1,2,4]triazine-6-carbonitrile]",8.94 nM,30 nM
"CC(c1cnn(-c2ccc(F)cc2F)c1)c1c(C#N)c(-c2cnc(C(F)(F)F)nc2)c2c(N)ncnn12 (single isomer, unassigned) [Example 21]",0.66 nM,3.13 nM
"CC(c1cn(-c2ccccc2F)nn1)c1cc(-c2cnc(C(F)(F)F)nc2)c2c(N)ncnn12 (single isomer, unassigned) [Example 53, 7-{1-[1-(2-fluorophenyl)-1H-1,2,3-triazol-4-yl]ethyl}-5-[2-(trifluoromethyl)pyrimidin-5-yl]pyrrolo[2,1-f][1,2,4]triazin-4-amine]",171 nM,76.4 nM
"CC(c1cn(-c2ccccc2F)nn1)c1cc(-c2cnc(C(F)(F)F)nc2)c2c(N)ncnn12 (single isomer, unassigned) [Example 54, 7-{1-[1-(2-fluorophenyl)-1H-1,2,3-triazol-4-yl]ethyl}-5-[2-(trifluoromethyl)pyrimidin-5-yl]pyrrolo[2,1-f][1,2,4]triazin-4-amine]",6.48 nM,7.4 nM
"CC(c1cn(-c2ccc(F)cc2F)nn1)c1cc(-c2cnc(C(F)(F)F)nc2)c2c(N)ncnn12 (single isomer, unassigned) [Example 55, 7-{1-[1-(2,4-difluorophenyl)-1H-1,2,3-triazol-4-yl]ethyl}-5-[2-(trifluoromethyl)pyrimidin-5-yl]pyrrolo[2,1-f][1,2,4]triazin-4-amine]",225 nM,266 nM
"CC(c1cn(-c2ccc(F)cc2F)nn1)c1cc(-c2cnc(C(F)(F)F)nc2)c2c(N)ncnn12 (single isomer, unassigned) [Example 56, 7-{1-[1-(2,4-difluorophenyl)-1H-1,2,3-triazol-4-yl]ethyl}-5-[2-(trifluoromethyl)pyrimidin-5-yl]pyrrolo[2,1-f][1,2,4]triazin-4-amine]",7.48 nM,8.76 nM
"CCC(c1cn(-c2ccccc2F)nn1)c1cc(-c2cnc(C(F)(F)F)nc2)c2c(N)ncnn12 (single isomer, unassigned) [Example 57, 7-{1-[1-(2-fluorophenyl)-1H-1,2,3-triazol-4-yl]propyl}-5-[2-(trifluoromethyl)pyrimidin-5-yl]pyrrolo[2,1-f][1,2,4]triazin-4-amine]",2 nM,1.88 nM
"CCC(c1cn(-c2ccccc2F)nn1)c1cc(-c2cnc(C(F)(F)F)nc2)c2c(N)ncnn12 (single isomer, unassigned) [Example 58, 7-{1-[1-(2-fluorophenyl)-1H-1,2,3-triazol-4-yl]propyl}-5-[2-(trifluoromethyl)pyrimidin-5-yl]pyrrolo[2,1-f][1,2,4]triazin-4-amine]",36.6 nM,91.2 nM
"CCC(c1cn(-c2ccc(F)cc2F)nn1)c1cc(-c2cnc(C(F)(F)F)nc2)c2c(N)ncnn12 (single isomer, unassigned) [Example 59, 7-{1-[1-(2,4-difluorophenyl)-1H-1,2,3-triazol-4-yl]propyl}-5-[2-(trifluoromethyl)pyrimidin-5-yl]pyrrolo[2,1-f][1,2,4]triazin-4-amine]",115 nM,249 nM
"CCC(c1cn(-c2ccc(F)cc2F)nn1)c1cc(-c2cnc(C(F)(F)F)nc2)c2c(N)ncnn12 (single isomer, unassigned) [Example 60, 7-{1-[1-(2,4-difluorophenyl)-1H-1,2,3-triazol-4-yl]propyl}-5-[2-(trifluoromethyl)pyrimidin-5-yl]pyrrolo[2,1-f][1,2,4]triazin-4-amine]",2 nM,3.36 nM
"CCC(c1cn(-c2cc(F)ccc2F)nn1)c1cc(-c2cnc(C(F)(F)F)nc2)c2c(N)ncnn12 (single isomer, unassigned) [Example 61, 7-{1-[1-(2,5-difluorophenyl)-1H-1,2,3-triazol-4-yl]propyl}-5-[2-(trifluoromethyl)pyrimidin-5-yl]pyrrolo[2,1-f][1,2,4]triazin-4-amine]",73.7 nM,253 nM
"CCC(c1cn(-c2cc(F)ccc2F)nn1)c1cc(-c2cnc(C(F)(F)F)nc2)c2c(N)ncnn12 (single isomer, unassigned) [Example 62, 7-{1-[1-(2,5-difluorophenyl)-1H-1,2,3-triazol-4-yl]propyl}-5-[2-(trifluoromethyl)pyrimidin-5-yl]pyrrolo[2,1-f][1,2,4]triazin-4-amine]",9.95 nM,17.6 nM
"CCC(c1cn(-c2ccc(F)c(F)c2)nn1)c1cc(-c2cnc(C(F)(F)F)nc2)c2c(N)ncnn12 (single isomer, unassigned) [Example 63, 7-{1-[1-(3,4-difluorophenyl)-1H-1,2,3-triazol-4-yl]propyl}-5-[2-(trifluoromethyl)pyrimidin-5-yl]pyrrolo[2,1-f][1,2,4]triazin-4-amine]",19.3 nM,29.6 nM
"CCC(c1cn(-c2ccc(F)c(F)c2)nn1)c1cc(-c2cnc(C(F)(F)F)nc2)c2c(N)ncnn12 (single isomer, unassigned) [Example 64, 7-{1-[1-(3,4-difluorophenyl)-1H-1,2,3-triazol-4-yl]propyl}-5-[2-(trifluoromethyl)pyrimidin-5-yl]pyrrolo[2,1-f][1,2,4]triazin-4-amine]",177 nM,479 nM
